# From patent US4226775A, “Substituted thio-substituted benzyl-propionyl-L-prolines” (American Cyanamid Company, priority 1979, dated 1980)
# Target: T1, angiotensin converting enzyme (ACE) (Oryctolagus cuniculus, UniProt P12822)
# T1 construct: The ACE was extracted from rabbit lung acetane powder (Pel-Freez, Biol. Inc.); tissue Pel-Freez, Biol. Inc; host or cells: rabbit lung acetone powder, crude extract (40,000 g supernatant)
# T1 sequence (P12822 34-1310): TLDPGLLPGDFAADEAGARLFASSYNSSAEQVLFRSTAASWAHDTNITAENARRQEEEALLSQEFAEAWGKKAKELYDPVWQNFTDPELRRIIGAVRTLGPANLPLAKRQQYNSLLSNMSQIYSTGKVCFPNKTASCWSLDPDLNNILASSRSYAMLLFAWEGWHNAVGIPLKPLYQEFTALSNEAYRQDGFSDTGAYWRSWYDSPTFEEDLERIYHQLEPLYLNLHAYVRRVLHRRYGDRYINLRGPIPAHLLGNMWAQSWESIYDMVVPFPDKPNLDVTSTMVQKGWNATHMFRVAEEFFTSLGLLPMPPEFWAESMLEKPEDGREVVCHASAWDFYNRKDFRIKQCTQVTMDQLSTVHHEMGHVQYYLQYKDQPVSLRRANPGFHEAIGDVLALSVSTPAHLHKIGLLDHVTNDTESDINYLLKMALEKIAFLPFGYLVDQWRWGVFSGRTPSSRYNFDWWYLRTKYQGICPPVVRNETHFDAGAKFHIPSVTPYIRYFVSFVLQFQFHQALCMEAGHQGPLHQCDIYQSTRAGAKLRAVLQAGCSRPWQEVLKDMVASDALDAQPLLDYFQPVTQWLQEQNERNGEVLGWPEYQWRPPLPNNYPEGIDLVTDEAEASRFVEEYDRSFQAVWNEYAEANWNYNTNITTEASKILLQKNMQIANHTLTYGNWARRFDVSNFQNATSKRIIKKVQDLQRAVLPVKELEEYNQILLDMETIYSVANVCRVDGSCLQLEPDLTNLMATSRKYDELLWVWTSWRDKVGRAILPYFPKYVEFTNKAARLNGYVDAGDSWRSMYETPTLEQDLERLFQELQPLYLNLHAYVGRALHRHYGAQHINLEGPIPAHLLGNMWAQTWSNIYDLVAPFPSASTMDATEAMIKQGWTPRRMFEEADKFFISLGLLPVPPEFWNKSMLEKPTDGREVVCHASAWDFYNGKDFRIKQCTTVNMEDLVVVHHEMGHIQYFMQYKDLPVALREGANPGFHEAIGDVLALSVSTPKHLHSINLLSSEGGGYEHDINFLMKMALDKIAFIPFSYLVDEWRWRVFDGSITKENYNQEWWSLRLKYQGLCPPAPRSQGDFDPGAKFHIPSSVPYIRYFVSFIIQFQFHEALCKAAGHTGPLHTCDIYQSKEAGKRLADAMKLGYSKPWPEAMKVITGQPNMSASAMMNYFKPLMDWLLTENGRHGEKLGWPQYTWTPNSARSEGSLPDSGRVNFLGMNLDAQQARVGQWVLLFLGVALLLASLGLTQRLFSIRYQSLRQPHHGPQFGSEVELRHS
# Test: Spectrophotometric assay for angiotensin converting enzyme inhibitors
# Assay type: biochemical
# Settings: crude ACE extract from rabbit lung; substrate benzoyl-glycyl-histidyl-leucine; 30 minutes at 37° C.; absorbance at 228 nm
# Description: The activity of the novel compounds of this invention as hypotensive agents was established in two systems which measure their ability as angiotensin converting enzyme inhibitors; namely, a spectrophotometric assay of the compounds in vitro and by the measurement of the blood pressure lowering effect of the compounds in the aorta-coarcted renal hypertensive rats.
# The in vitro activity for inhibition of the angiotensin converting enzyme (ACE) was measured by the method of Cushman, D. W. and Cheung, H. S., Biochem. Pharmacol. 20, 1637-1648 (1971), using benzoyl-glycyl-histidyl-leucine as the substrate. The reaction mixture consisted of 50 ml. of potassium phosphate (500 mM., […]), […]. of sodium chloride (2500 mM.), 25 ml. of substrate (50 mM), 30 to 50 ml. of the crude extract of ACE, 10 ml. of test compound (2.5 mM) or vehicle and a suitable amount of distilled water to give a total volume of 250 ml. This reaction mixture was incubated for 30 minutes at 37° C. and the reaction was then terminated by the addition of 250 ml. of 1 N hydrochloric acid. The hippuric acid was then extracted with 1.5 ml. of ethyl acetate by vortex mixing for 15 seconds. After centrifugation, 1 ml. of the ethyl acetate layer was pipetted into a new tube and evaporated to dryness. The extracted hippuric acid was then dissolved in 1 ml. of water and the amount of this acid was then measured by its absorbance at 228 nm. The ACE was extracted from rabbit lung acetane powder (Pel-Freez, Biol. Inc.) by blending 5 g. of the powder in 50 ml. of phosphate buffer (50 mM, pH 8.3) and then centrifuging at 40,000 g for 30 minutes. The supernatant was then kept at 5° C. and used as the enzyme source. The activity of the ACE inhibitor was calculated as the percent inhibition of ACE activity compared to the control value of that particular assay. A full dose-response inhibitory curve is then performed to determine the IC50 value which may be defined as the molar concentration of a compound that will inhibit the ACE activity by 50%.
row,Compound,IC50 [nM]
1,CC(=O)SC(CC(=O)c1ccccc1)C(=O)N1CCC[C@H]1C(=O)O (stereo partly drawn) [1-(2-Acetylthio-3-benzoylpropionyl)-L-proline],4230
2,CC(=O)SC(CC(=O)N1CCC[C@H]1C(=O)O)C(=O)c1ccccc1 (stereo partly drawn) [1-(3-Acetylthio-3-benzoylpropionyl)-L-proline],455
3,O=C(SC(CC(=O)N1CCC[C@H]1C(=O)O)C(=O)c1ccccc1)c1ccccc1 (stereo partly drawn) [1-(3-Benzoylthio-3-benzoylpropionyl)-L-proline],513
4,O=C(c1ccc(Br)cc1)C(S)CC(=O)N1CCC[C@H]1C(=O)O (stereo partly drawn) [1-[3-(4-Bromobenzoyl)-3-thiopropionyl]-L-proline],352
5,O=C(c1cnc(SC(CC(=O)N2CCC[C@H]2C(=O)O)C(=O)c2ccc(Cl)cc2)nc1)c1cccs1 (stereo partly drawn) [1-[3-(4-Chlorobenzoyl)-3-[5-(2-thenoyl)-2-pyrimidinylthio]propionyl]-L-proline],5130
6,O=C(c1ccccc1)c1cnc(SC(CC(=O)N2CCC[C@H]2C(=O)O)C(=O)c2ccc(Cl)cc2)nc1 (stereo partly drawn) [1-[3-(5-Benzoyl-2-pyrimidinylthio)-3-(4-chlorobenzoyl)propionyl]-L-proline],2780
7,COc1ccc(C(=O)C(CC(=O)N2CCC[C@H]2C(=O)O)SC(C)=O)cc1F (stereo partly drawn) [1-[3-Acetylthio-3-(3-fluoro-4-methoxybenzoyl)propionyl]-L-proline],600
8,CC(=O)SC(CC(=O)N1CCC[C@H]1C(=O)O)C(=O)c1cccc(C(F)(F)F)c1 (stereo partly drawn) [1-[3-Acetylthio-3-(3-trifluoromethylbenzoyl)propionyl]-L-proline],1070
9,CC(=O)SC(CC(=O)N1CCC[C@H]1C(=O)O)C(=O)c1ccc(F)cc1 (stereo partly drawn) [1-[3-Acetylthio-3-(4-fluorobenzoyl)propionyl]-L-proline],473
10,O=C(O)CSC(CC(=O)c1ccccc1)C(=O)N1CCC[C@H]1C(=O)O (stereo partly drawn) [1-[3-Benzoyl-2-(carboxymethylthio)propionyl]-L-proline],31600
11,O=C(SC(CC(=O)N1CCC[C@H]1C(=O)O)C(=O)c1cccc(F)c1)c1ccccc1 (stereo partly drawn) [1-[3-Benzoylthio-3-(3-fluorobenzoyl)propionyl]-L-proline],1760
12,O=C(SC(CC(=O)N1CCC[C@H]1C(=O)O)C(=O)c1ccc(F)cc1)c1ccccc1 (stereo partly drawn) [1-[3-Benzoylthio-3-(4-fluorobenzoyl)propionyl]-L-proline],353
13,CC(=O)SC(CC(=O)N1CCC[C@H]1C(=O)O)C(=O)c1ccc(Oc2ccc(Cl)cc2)cc1 (stereo partly drawn) [1-{3-Acetylthio-3-[4-(4-chlorophenoxy)benzoyl]-propionyl}-L-proline],358
14,"CC(=O)S[C@@H](C(=O)c1cccc(F)c1)[C@H](C)C(=O)N1CCC[C@H]1C(=O)O [[R-(R*,R*)]-1-[3-acetylthio-3-(3-fluorobenzoyl)-2-methylpropionyl]-L-proline]",16000
15,"CC(=O)S[C@H](C(=O)c1cccc(F)c1)[C@H](C)C(=O)N1CCC[C@H]1C(=O)O [[R-(R*,S*)]-1-[3-acetylthio-3-(3-fluorobenzoyl)-2-methylpropionyl]-L-proline]",280000

# Now those with a lower IC50, led by results:
row,IC50 [nM],Compound
1,147,CC(=O)SC(C(=O)c1ccccc1)C(C)C(=O)N1CCC[C@H]1C(=O)O (stereo partly drawn) [1-(3-Acetylthio-3-benzoyl-2-methylpropionyl)-L-proline]
2,115,O=C(SC(CC(=O)N1CCC[C@H]1C(=O)O)C(=O)c1ccc(Br)cc1)c1ccccc1 (stereo partly drawn) [1-[3-(4-Bromobenzoyl)-3-benzoylthiopropionyl]-L-proline]
3,130,CC(=O)SC(CC(=O)N1CCC[C@H]1C(=O)O)C(=O)c1ccc2ccccc2c1 (stereo partly drawn) [1-[3-Acetylthio-3-(2-naphthoyl)propionyl]-L-proline]
4,61.7,CC(=O)SC(C(=O)c1cccc(F)c1)C(C)C(=O)N1CCC[C@H]1C(=O)O (stereo partly drawn) [1-[3-Acetylthio-3-(3-fluorobenzoyl)-2-methylpropionyl]-L-proline]
5,31.6,CC(=O)SC(CC(=O)N1CCC[C@H]1C(=O)O)C(=O)c1cccc(F)c1 (stereo partly drawn) [1-[3-Acetylthio-3-(3-fluorobenzoyl)propionyl]-L-proline]
6,86,CC(=O)SC(CC(=O)N1CCC[C@H]1C(=O)O)C(=O)c1ccc(-c2ccccc2)cc1 (stereo partly drawn) [1-[3-Acetylthio-3-(4-biphenylylcarbonyl)propionyl]-L-proline]
7,131,CC(=O)SC(CC(=O)N1CCC[C@H]1C(=O)O)C(=O)c1ccc(Br)cc1 (stereo partly drawn) [1-[3-Acetylthio-3-(4-bromobenzoyl)propionyl]-L-proline]
8,335,CC(=O)SC(C(=O)c1ccc(Cl)cc1)C(C)C(=O)N1CCC[C@H]1C(=O)O (stereo partly drawn) [1-[3-Acetylthio-3-(4-chlorobenzoyl)-2-methylpropionyl]-L-proline]
9,82.6,CC(=O)SC(CC(=O)N1CCC[C@H]1C(=O)O)C(=O)c1ccc(Cl)cc1 (stereo partly drawn) [1-[3-Acetylthio-3-(4-chlorobenzoyl)propionyl]-L-proline]
10,183,CC(=O)SC(CC(=O)N1CCC[C@H]1C(=O)O)C(=O)c1ccc(C(C)(C)C)cc1 (stereo partly drawn) [1-[3-Acetylthio-3-(4-tert-butylbenzoyl)propionyl]-L-proline]
11,218,CC(=O)SC(CC(=O)N1CCC[C@H]1C(=O)O)C(=O)c1ccc2c(c1)CCC2 (stereo partly drawn) [1-[3-acetylthio-3-(5-indanylcarbonyl)propionyl]-L-proline]
12,78,"CC(=O)S[C@H](C(=O)c1ccccc1)[C@@H](C)C(=O)N1CCC[C@H]1C(=O)O [[S-(R*,R*)]-1-(3-acetylthio-3-benzoyl-2-methylpropionyl)-L-proline]"
13,233,"CC(=O)S[C@H](C(=O)c1cccc(F)c1)[C@@H](C)C(=O)N1CCC[C@H]1C(=O)O [[S-(R*,R*)]-1-[3-acetylthio-3-(3-fluorobenzoyl)-2-methylpropionyl]-L-proline]"
14,133,"CC(=O)S[C@H](C(=O)c1ccc(Br)cc1)[C@@H](C)C(=O)N1CCC[C@H]1C(=O)O [[S-(R*,R*)]-1-[3-acetylthio-3-(4-bromobenzoyl)-2-methylpropionyl]-L-proline]"
15,51.5,"CC(=O)S[C@@H](C(=O)c1ccccc1)[C@@H](C)C(=O)N1CCC[C@H]1C(=O)O [[S-(R*,S*)]-1-(3-Acetylthio-3-benzoyl-2-methylpropionyl)-L-proline]"
16,37,"CC(=O)S[C@@H](C(=O)c1cccc(F)c1)[C@@H](C)C(=O)N1CCC[C@H]1C(=O)O [[S-(R*,S*)]-1-[3-acetylthio-3-(3-fluorobenzoyl)-2-methylpropionyl]-L-proline]"
17,98.5,"CC(=O)S[C@@H](C(=O)c1ccc(Br)cc1)[C@@H](C)C(=O)N1CCC[C@H]1C(=O)O [[S-(R*,S*)]-1-[3-acetylthio-3-(4-bromobenzoyl)-2-methylpropionyl]-L-proline]"
